In article PMC7226045, “Ensartinib (X-396) Effectively Modulates Pharmacokinetic Resistance Mediated by ABCB1 and ABCG2 Drug Efflux Transporters and CYP3A4 Biotransformation Enzyme” (Cancers, 2020):
Where two headings read alike, the source gives them in different places.

Columns and labels:
[1] = MTT proliferation / drug combination assay, MDCKII-ABCG2; type: cell-based, canine; details: dog, MDCKII-ABCG2 cells, 48 h, MTT, read-out: IC50, sensitivity to ensartinib
Experimental: (§1) MTT proliferation assay was performed as described previously.

MDCKII-ABCG2 cells = test: as above; type: cell-based, canine
Experimental: as §1

ABCB1 = target: T1, ABCB1 (Homo sapiens, UniProt P08183); test: MDCKII monolayer transport assay, MDCKII-ABCB1; type: in vitro ADME; details: dog
T1 construct: expressed in transfected cells; host or cells: MDCKII-ABCB1 (from Dr. Alfred Schinkel, The Netherlands Cancer Institute)
T1 sequence (P08183 whole entry): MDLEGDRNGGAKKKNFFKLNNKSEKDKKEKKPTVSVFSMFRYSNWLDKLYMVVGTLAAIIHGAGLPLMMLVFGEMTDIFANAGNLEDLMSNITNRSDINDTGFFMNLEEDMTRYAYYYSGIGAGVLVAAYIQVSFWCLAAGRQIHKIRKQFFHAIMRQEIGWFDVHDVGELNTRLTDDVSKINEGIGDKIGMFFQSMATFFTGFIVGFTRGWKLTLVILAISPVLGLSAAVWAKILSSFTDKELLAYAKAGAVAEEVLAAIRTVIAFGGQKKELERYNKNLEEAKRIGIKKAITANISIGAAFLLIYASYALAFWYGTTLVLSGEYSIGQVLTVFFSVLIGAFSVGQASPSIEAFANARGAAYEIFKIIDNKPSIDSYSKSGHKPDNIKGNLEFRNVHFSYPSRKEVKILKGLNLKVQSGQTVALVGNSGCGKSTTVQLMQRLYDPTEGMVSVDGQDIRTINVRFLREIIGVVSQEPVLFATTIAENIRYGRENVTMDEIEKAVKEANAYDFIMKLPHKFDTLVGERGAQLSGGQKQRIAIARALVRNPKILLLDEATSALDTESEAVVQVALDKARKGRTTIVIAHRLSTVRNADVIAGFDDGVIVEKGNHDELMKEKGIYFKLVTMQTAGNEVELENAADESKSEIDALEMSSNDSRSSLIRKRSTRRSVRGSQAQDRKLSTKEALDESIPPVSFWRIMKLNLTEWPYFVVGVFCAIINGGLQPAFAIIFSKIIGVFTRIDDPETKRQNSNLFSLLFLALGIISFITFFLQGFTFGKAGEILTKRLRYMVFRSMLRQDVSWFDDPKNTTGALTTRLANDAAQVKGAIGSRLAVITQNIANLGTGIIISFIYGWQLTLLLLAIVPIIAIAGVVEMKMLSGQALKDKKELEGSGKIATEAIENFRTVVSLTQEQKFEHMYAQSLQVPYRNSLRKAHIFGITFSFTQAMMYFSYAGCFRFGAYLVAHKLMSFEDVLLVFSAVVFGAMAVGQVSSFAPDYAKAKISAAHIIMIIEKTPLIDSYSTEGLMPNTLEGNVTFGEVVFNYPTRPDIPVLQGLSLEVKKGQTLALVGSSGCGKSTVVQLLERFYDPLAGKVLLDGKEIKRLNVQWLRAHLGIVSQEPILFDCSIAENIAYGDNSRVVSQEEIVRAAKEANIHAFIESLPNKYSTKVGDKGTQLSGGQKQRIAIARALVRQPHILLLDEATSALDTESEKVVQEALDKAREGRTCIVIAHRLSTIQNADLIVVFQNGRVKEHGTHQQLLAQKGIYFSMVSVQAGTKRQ
Experimental: Transport assays were performed on microporous polycarbonate membrane filters (3 µm pore size, 24 mm diameter, Transwell 3414; Costar, Corning, NY, USA) using MDCKII parental as well as ABCB1-, ABCG2-, and ABCC1-overexpressing MDCKII cells. The cells were seeded at a density of 1.5 × 10^6 cells per insert and cultured to full confluence for 7 days with media exchanges on the second and fourth days. Before the start of the transport experiments, inserts were washed with 1 × PBS on both the apical and basal sides. The cells were then preincubated in Opti-MEM with or without model inhibitors (1 µM LY335979, 1 µM Ko143, or 25 µM MK-571). […] Ensartinib levels in samples were measured by UHPLC-MS/MS (see below). […]
Samples from the monolayer transport assays (10 µL) were mixed with 100 µL of acetonitrile and 100 µL of methanol, vortexed for 15 min, and centrifuged at 14,500 rpm for 3 min. […] The MS source parameters were set to the following: drying gas, 320 °C, flow rate 10 l/min; sheath gas, 400 °C at 12 l/min; nebulizer pressure 25 psi; capillary voltage 4000 V; nozzle voltage 0 V. Transitions of [M+H]^+ ions were detected using a dwell time of 150 ms, a cell acceleration of 4 V, and fragmentor voltages of 137 V for 547→357, 257 and 120 transitions (corresponding to collision energies of 16, 32, and 56 V).

ABCG2 = target: T2, ABCG2 (Homo sapiens, UniProt Q9UNQ0); test: mitoxantrone accumulation assay (flow cytometry) in MDCKII-ABCG2 cells; type: cell-based; details: 1 µM mitoxantrone, 1 h, read-out: IC50, inhibition of ABCG2 (mitoxantrone accumulation)
T2 construct: expressed in transfected cells; host or cells: MDCKII-ABCG2 (from Dr. Alfred Schinkel, The Netherlands Cancer Institute)
T2 sequence (Q9UNQ0 1-655): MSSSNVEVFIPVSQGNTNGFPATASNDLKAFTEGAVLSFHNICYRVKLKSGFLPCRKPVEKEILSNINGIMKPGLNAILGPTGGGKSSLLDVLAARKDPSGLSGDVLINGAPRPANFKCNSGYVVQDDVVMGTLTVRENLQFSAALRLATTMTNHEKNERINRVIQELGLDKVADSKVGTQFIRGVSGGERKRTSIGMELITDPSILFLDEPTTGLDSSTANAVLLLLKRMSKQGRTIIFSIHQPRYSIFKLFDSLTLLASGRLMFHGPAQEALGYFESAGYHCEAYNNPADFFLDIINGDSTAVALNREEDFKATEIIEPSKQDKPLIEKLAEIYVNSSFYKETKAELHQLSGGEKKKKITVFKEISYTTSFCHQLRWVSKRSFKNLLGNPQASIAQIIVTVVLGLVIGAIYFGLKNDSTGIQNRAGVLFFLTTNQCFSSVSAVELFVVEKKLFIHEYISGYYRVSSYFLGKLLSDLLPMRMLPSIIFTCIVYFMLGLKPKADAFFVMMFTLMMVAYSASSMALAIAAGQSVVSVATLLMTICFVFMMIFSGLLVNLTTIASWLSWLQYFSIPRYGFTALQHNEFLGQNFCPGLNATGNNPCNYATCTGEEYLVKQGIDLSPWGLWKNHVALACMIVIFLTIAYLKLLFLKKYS
Experimental: The flow-cytometric inhibitory assay with daunorubicin and mitoxantrone was performed with minor modifications as described previously. MDCKII-par, MDCKII-ABCB1, MDCKII-ABCG2, and MDCKII-ABCC1 cell lines were seeded at densities of 22.0 × 10^4, 15.0 × 10^4, 25.0 × 10^4, and 22.0 × 10^4 cells/well, respectively, on a 12-well plate and then incubated for 24 h to reach approximately 70–80% confluence. Further steps including cell washing, the preparation of drug/model inhibitor dilutions, and their addition to cells were performed as described above. After the 10 min pre-incubation period, 2 µM daunorubicin (a substrate of ABCB1/ABCC1) or 1 µM mitoxantrone (ABCG2 substrate) were promptly added to all wells other than those containing background samples, then the plate was incubated for 1 h under standard conditions. The plates were subsequently placed on ice, the cells were washed twice with ice-cold 1× PBS, and 10× trypsin without phenol red was added. After complete trypsinization, the cells were vigorously resuspended in ice-cold 1× PBS containing 2% FBS. Samples were then transferred into test-tubes and kept on ice until their fluorescence could be measured using a flow cytometer (BD FACSCanto II, Allschwil, Switzerland). The excitation/emission wavelengths for daunorubicin and mitoxantrone were 490/565 and 640/670 nm, respectively.

CYP3A4 = CYP3A4 (Homo sapiens, UniProt P08684); test: Inhibition of CYP3A4 in intact HepG2-CYP3A4 cells (P450-Glo, luciferin-IPA); type: cell-based; set-up: expressed in transfected cells; host or cells: HepG2-CYP3A4; details: luciferin-IPA 2 µM, 45 min, normalized to viability, read-out: IC50, inhibition of CYP3A4 in enzyme-overexpressing HepG2 cells
Chain of CYP3A4 (P08684 whole entry): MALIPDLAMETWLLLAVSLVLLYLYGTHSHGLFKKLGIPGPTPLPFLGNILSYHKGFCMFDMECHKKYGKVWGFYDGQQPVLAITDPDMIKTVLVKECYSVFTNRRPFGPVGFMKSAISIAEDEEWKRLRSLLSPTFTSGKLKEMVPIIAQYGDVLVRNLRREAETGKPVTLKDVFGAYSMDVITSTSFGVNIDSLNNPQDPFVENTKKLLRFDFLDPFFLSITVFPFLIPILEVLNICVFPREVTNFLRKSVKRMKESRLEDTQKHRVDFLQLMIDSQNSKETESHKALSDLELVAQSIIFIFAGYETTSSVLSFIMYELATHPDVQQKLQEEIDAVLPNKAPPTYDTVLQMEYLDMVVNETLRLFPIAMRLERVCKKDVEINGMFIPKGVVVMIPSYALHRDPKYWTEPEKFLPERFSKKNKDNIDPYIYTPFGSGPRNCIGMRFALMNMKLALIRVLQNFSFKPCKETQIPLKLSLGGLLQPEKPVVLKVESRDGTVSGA
Experimental: A cell-based method using the P450-Glo CYP3A4 Assay and Screening System with Luciferin-IPA together with the CellTiter-Glo Luminescent Cell Viability Assay was used to measure CYP3A4 inhibition in intact HepG2-CYP3A4 cells [27]. HepG2-CYP3A4 cells were seeded on a transparent 96-well plate at a density of 8.0 × 10^4 cells/well and cultured for 24 h. […] After a 10 min pre-incubation under standard conditions, the CYP3A4 substrate luciferin-IPA was quickly added to all cells other than background samples at a final concentration of 2 µM and the plates were then incubated for 45 min at room temperature. After incubation, the plates were placed on ice and some of the culture media from the cells was transferred to an opaque white 96-well plate and mixed with Luciferin Detection Reagent in a ratio of 1:1 (v/v). The resulting solution was incubated for 20 min at room temperature, then the samples’ luminescence was measured using a microplate reader (Infinite M200 Pro, Tecan, Männedorf, Switzerland) with an integration time of 250 ms. The remaining media was separated from the cells, then 35 µL of pure Opti-MEM was added and the resulting mixture was incubated for 30 min at room temperature. […] Luminescence (which correlates with cell viability) was monitored under conditions identical to those used in the previous step.

efflux ratio at 4 h, 1 µM (ABCB1; MDCK-MDR1, 1 µM ensartinib, read-out: transport ratio (r), BA/AB): 15.6
efflux ratio at 4 h, 1 µM (ABCB1; MDCK-MDR1, with LY335979, 1 µM ensartinib + 1 µM LY335979, read-out: transport ratio (r), BA/AB, with ABCB1 inhibitor): 1.05
SMILES: C[C@@H]1CN(C(=O)c2ccc(NC(=O)c3cc(O[C@H](C)c4c(Cl)ccc(F)c4Cl)c(N)nn3)cc2)C[C@H](C)N1 [ensartinib, Ensartinib]
IC50 at 48 h [1]: 23.3 µM
combination effect (Chou-Talalay combination index) (MDCKII-ABCG2 cells; 10 µM ensartinib with mitoxantrone): synergistic (synergistic (CI < 0.9))
RR (reversal ratio) (MDCKII-ABCG2 cells; mitoxantrone, IC50 single drug / IC50 combined with 10 µM ensartinib): 6.16
IC50 (ABCG2): 28.3 µM
IC50 (CYP3A4): 23.5 µM
